For orientation: Ki means a measure of affinity in units of concentration, obtained from inhibition or displacement.

For the assay, the target named is T1, human 5-hydroxytryptamine-2C (h5-HT2C) receptor (Homo sapiens, UniProt P28335).
T1 construct: expressed in transfected cells; host or cells: CHO (Chinese Hamster Ovary) cells; membranes
T1 sequence (P28335 33-458): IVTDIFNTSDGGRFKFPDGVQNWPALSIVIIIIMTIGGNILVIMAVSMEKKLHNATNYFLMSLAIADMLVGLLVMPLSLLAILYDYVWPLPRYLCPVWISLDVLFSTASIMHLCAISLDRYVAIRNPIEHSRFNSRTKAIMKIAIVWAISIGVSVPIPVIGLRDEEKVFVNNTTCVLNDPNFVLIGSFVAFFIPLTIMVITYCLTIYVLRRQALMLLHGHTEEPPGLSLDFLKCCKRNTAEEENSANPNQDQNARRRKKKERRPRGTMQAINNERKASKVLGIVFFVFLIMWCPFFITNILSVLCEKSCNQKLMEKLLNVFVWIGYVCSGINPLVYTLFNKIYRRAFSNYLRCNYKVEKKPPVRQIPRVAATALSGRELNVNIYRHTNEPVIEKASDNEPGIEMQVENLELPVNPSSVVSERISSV
Kind of assay: [125I]DOI binding to membranes of CHO cells expressing the human 5-HT2C receptor. The following applies: [125I]DOI radioligand, CHO cell membranes, room temperature 60 min; read-out: 5-HT2C Affinity Ki.
On to `NCC1Cc2c(F)ccc(-c3ccccc3)c2O1` (racemic) [Example 98, (±)-1-(4-fluoro-7-phenyl-2,3-dihydro-1-benzofuran-2-yl)methanamine], for which the Ki was 60 nM. As to `Cc1ccc(-c2cc(C(F)(F)F)cc3c2OC(CN)C3)cc1` (racemic) [Example 323, (±)-{[5-(trifluoromethyl)-7-(4-methylphenyl)-2,3-dihydro-1-benzofuran-2-yl]methyl}amine], the Ki amounted to 161 nM. In the case of `NCC1Cc2cccc(Nc3ccccc3)c2O1` (racemic) [Example 173, (±)-N-[2-(aminomethyl)-2,3-dihydro-1-benzofuran-7-yl]-N-phenylamine] it was 326 nM; in that of `CNCC1Cc2cc(-c3ccccc3)cc(-c3cccc(C)c3)c2O1` (racemic) [Example 512, (±)-{[7-(3-methylphenyl)-5-phenyl-2,3-dihydro-1-benzofuran-2-yl]methyl}methylamine], 810 nM.

As to `NCC1Cc2cccc(-c3cccnc3)c2O1` (single isomer, unassigned; (-)) [Example 172, (−)-{[7-pyridin-3-yl-2,3-dihydro-1-benzofuran-2-yl]methyl}amine], the Ki came to 185 nM.

For `NCC1Cc2cc(C(F)(F)F)cc(-c3ccc(F)c(Cl)c3)c2O1` (racemic) [Example 335, (±)-{[7-(3-chloro-4-fluorophenyl)-5-(trifluoromethyl)-2,3-dihydro-1-benzofuran-2-yl]methyl}amine], the Ki stood at 192 nM.

In the case of `CNCC1Cc2cc(-c3ccccc3)cc(-c3ccccc3C)c2O1` (racemic) [Example 511, (±)-{[7-(2-methylphenyl)-5-phenyl-2,3-dihydro-1-benzofuran-2-yl]methyl}methylamine], the Ki worked out at 248 nM.

For the compound `Cc1ccccc1-c1cccc2c1CC(CN)O2` (single isomer, unassigned; (-)) [Example 6, (−)-1-[4-(2-methylphenyl)-2,3-dihydro-1-benzofuran-2-yl]methanamine], the Ki came to 84 nM. The same measure for `CNCC1Cc2cc(C(F)(F)F)cc(-c3cccc(F)c3)c2O1` (racemic) [Example 520, (±)-N-methyl-1-[7-(3-fluorophenyl)-5-(trifluoromethyl)-2,3-dihydro-1-benzofuran-2-yl]methanamine]: 372 nM. The same measure for `NCC1Cc2cccc(-c3ccccc3F)c2O1` (single isomer, unassigned; (+)) [Example 51, (+)-1-[7-(2-fluorophenyl)-2,3-dihydro-1-benzofuran-2-yl]methanamine]: 1 nM; for `CC1(CN)Cc2cc(Cl)cc(-c3ccccc3)c2O1` (racemic) [Example 112, (±)-1-(5-chloro-2-methyl-7-phenyl-2,3-dihydro-1-benzofuran-2-yl)methanamine]: 55 nM; for `Cc1cccc(Nc2cccc3c2OC(CN)C3)c1` (racemic) [Example 182, (±)-N-[2-(aminomethyl)-2,3-dihydro-1-benzofuran-7-yl]-N-(3-methylphenyl)amine]: 279 nM. In the case of `CNCC1Cc2cc(-c3ccccc3C)cc(F)c2O1` (racemic) [Example 528, (±)-{[7-fluoro-5-(2-methylphenyl)-2,3-dihydro-1-benzofuran-2-yl]methyl}methylamine] it was 1090 nM; in that of `NCC1Cc2ccc(Cl)c(-c3ccccc3Cl)c2O1` (racemic) [Example 400, (±)-{[6-chloro-7-(2-chlorophenyl)-2,3-dihydro-1-benzofuran-2-yl]methyl}amine], 0.5 nM; in that of `Cc1ccc(Nc2cccc3c2OC(CN)C3)cc1C` (racemic) [Example 181, (±)-N-[2-(aminomethyl)-2,3-dihydro-1-benzofuran-7-yl]-N-(3,4-dimethylphenyl)amine], 146 nM. On to `NCC1Cc2cccc(/C=C/c3ccccc3)c2O1` (racemic) [Example 119, (±)-1-{7-[(E)-2-phenylvinyl]-2,3-dihydro-1-benzofuran-2-yl}methanamine], for which the Ki amounted to 78 nM. The same measure for `Cc1ccccc1-c1c(F)ccc2c1OC(CN)C2` (single isomer, unassigned; (+)) [Example 396, (+)-{[6-fluoro-7-(2-methylphenyl)-2,3-dihydro-1-benzofuran-2-yl]methyl}amine]: 0.3 nM; for `CCc1cc2c(c(-c3ccccc3C)c1)OC(CN)C2` (racemic) [Example 305, (±)-{[5-ethyl-7-(2-methylphenyl)-2,3-dihydro-1-benzofuran-2-yl]methyl}amine]: 1.1 nM; for `NCC1Cc2cccc(Nc3cccc(F)c3)c2O1` (racemic) [Example 183, (±)-N-[2-(aminomethyl)-2,3-dihydro-1-benzofuran-7-yl]-N-(3-fluorophenyl)amine]: 178 nM. In the case of `CNCC1Cc2cc(-c3ccccc3F)cc(F)c2O1` (racemic) [Example 530, (±)-{[7-fluoro-5-(2-fluorophenyl)-2,3-dihydro-1-benzofuran-2-yl]methyl}methylamine] it was 915 nM; in that of `NCC1Cc2cccc(-c3cc(Cl)cc(Cl)c3)c2O1` (racemic) [Example 35, (±)-1-[7-(3,5-dichlorophenyl)-2,3-dihydro-1-benzofuran-2-yl]methanamine], 141 nM. In the case of `NCC1Cc2cc(-c3ccc(Cl)cc3)cc(F)c2O1` (racemic) [Example 386, (±)-{[7-fluoro-5-(4-chlorophenyl)-2,3-dihydro-1-benzofuran-2-yl]methyl}amine] it was 1020 nM; in that of `NCC1Cc2c(C(F)(F)F)ccc(Cl)c2O1` (racemic) [Example 14, (±)-[7-chloro-4-(trifluoromethyl)-2,3-dihydro-1-benzofuran-2-yl]methanamine], 78 nM. For the compound `NCC1Cc2cc(-c3ccccc3)cc(-c3ccccc3F)c2O1` (racemic) [Example 348, (±)-{[7-(2-fluorophenyl)-5-phenyl-2,3-dihydro-1-benzofuran-2-yl]methyl}amine], the inhibition constant Ki was determined as 529 nM. In the case of `COc1ccc2c(c1)OC(CN)C2` (racemic) [Example 30, (±)-1-(6-methoxy-2,3-dihydro-1-benzofuran-2-yl)methanamine] it was 191 nM. In the case of `Cc1cccc(-c2cc(F)c3c(c2)CC(CN)O3)c1` (racemic) [Example 380, (±)-{[7-fluoro-5-(3-methylphenyl)-2,3-dihydro-1-benzofuran-2-yl]methyl}amine] it was 424 nM. In the case of `Cc1ccc(Cl)cc1-c1cc(F)cc2c1O[C@@H](CN)C2` [Example 548, {[(2R)-7-(5-chloro-2-methylphenyl)-5-fluoro-2,3-dihydro-1-benzofuran-2-yl]methyl}amine] it was 2.3 nM; in that of `CNCC1Cc2cc(-c3ccccc3)cc(-c3cccc(Cl)c3)c2O1` (racemic) [Example 506, (±)-{[7-(3-chlorophenyl)-5-phenyl-2,3-dihydro-1-benzofuran-2-yl]methyl}methylamine], 1600 nM. On to `NCC1Cc2cccc(CCc3ccccc3)c2O1` (racemic) [Example 120, (±)-1-[7-(2-phenylethyl)-2,3-dihydro-1-benzofuran-2-yl]methanamine], for which the Ki was 128 nM. The same measure for `NCC1Cc2cc(C(F)(F)F)cc(-c3cccc(Cl)c3Cl)c2O1` (racemic) [Example 330, (±)-{[7-(2,3-dichlorophenyl)-5-(trifluoromethyl)-2,3-dihydro-1-benzofuran-2-yl]methyl}amine]: 88 nM; for `Cc1cc2c(c(-c3c(Cl)cccc3Cl)c1)OC(CN)C2` (single isomer, unassigned; (-)) [Example 303, (−)-{[7-(2,6-dichlorophenyl)-5-methyl-2,3-dihydro-1-benzofuran-2-yl]methyl}amine]: 0.2 nM. The same measure for `CNCC1Cc2cc(-c3ccccc3C(F)(F)F)cc(F)c2O1` (racemic) [Example 531, (±)-{7-fluoro-5-[2-(trifluoromethyl)phenyl]-2,3-dihydro-1-benzofuran-2-yl}methyl)methylamine]: 409 nM; for `NCC1Cc2cc(-c3cccc(C(F)(F)F)c3)cc(F)c2O1` (racemic) [Example 383, (±)-({7-fluoro-5-[3-(trifluoromethyl)phenyl]-2,3-dihydro-1-benzofuran-2-yl}methyl)amine]: 1760 nM.

As to `Cc1cc(C)cc(Nc2cccc3c2OC(CN)C3)c1` (racemic) [Example 192, (±)-N-[2-(aminomethyl)-2,3-dihydro-1-benzofuran-7-yl]-N-(3,5-dimethylphenyl)amine], the Ki was 142 nM. In the case of `CCNC[C@H]1Cc2cc(F)cc(-c3c(Cl)cccc3Cl)c2O1` [Example 546, (R)-[7-(2,6-dichloro-phenyl)-5-fluoro-2,3-dihydro-benzofuran-2-ylmethyl]ethylamine] it was 2.3 nM.

In the case of `CNCC1Cc2ccc(Cl)c(-c3ccccc3Cl)c2O1` (racemic) [Example 404, (±)-{[6-chloro-7-(2-chlorophenyl)-2,3-dihydro-1-benzofuran-2-yl]methyl}methylamine], the Ki worked out at 0.4 nM.

On to `NCC1Cc2cccc(Nc3ccc(C(F)(F)F)cc3)c2O1` (racemic) [Example 177, (±)-N-[2-(aminomethyl)-2,3-dihydro-1-benzofuran-7-yl]-N-[4-(trifluoromethyl)phenyl]amine], for which the Ki came to 353 nM.

`Cc1ccc(Nc2cccc3c2OC(CN)C3)cc1Cl` (racemic) [Example 188, (±)-N-[2-(aminomethyl)-2,3-dihydro-1-benzofuran-7-yl]-N-(3-chloro-4-methylphenyl)amine]: the Ki worked out at 579 nM.

Values taken from patent US7435837B2, “Dihydrobenzofuranyl alkanamine derivatives and methods for using same” (Wyeth, priority 2003, dated 2008).
